From US6641840B2, “Sustained release formulations for growth hormone secretagogues” (Pfizer Inc., priority 2000, dated 2003)
Where no end group is shown, it is not given here. [ ]: non-standard residue; d: D form.

Tests used:
[1] = tested on: rat pituitary cells; assay: Pituitary cell desensitization - intracellular calcium assay; type: cell-based
Excerpt: Thus, it appears that sustained release formulations would not provide the desired in vivo response. The experiment was designed so that changes in intracellular calcium concentration could be continuously monitored during successive exposures of the same cells to the indicated test substances.
Rat pituitary cells were isolated as described in Example 3 and plated onto poly-D-lysine-coated glass coverslips, one coverslip per well in 12-well plates, at a density of 3-4×10^5 cells per well. Assays were performed 3-4 days after plating. Cells were loaded with 5 μM fura-2 AM (Molecular Probes, Eugene, Oreg.), a calcium-sensitive fluorescent dye, by incubation for 30 min at room temperature. Fura-2 was dissolved in dimethylsulfoxide at 5 mM, then diluted into KRH buffer (115 mM NaCl, 5.4 mM KCl, 1.8 mM CaCl2, 1 mM MgCl2, 0.96 mM NaH2PO4, 25 mM HEPES, 6 mM glucose and 0.05% bovine serum albumin, adjusted to pH 7.3)
To assay changes in intracellular calcium concentration, a coverslip with attached cells was mounted in a perfusion chamber on the stage of an inverted microscope (Zeiss Axiovert 135 with epifluorescence, Geschaftsbereich Mikroscopie, Oberkochen, Germany) and continuously superfused at room temperature. After superfusion with KRH for 1-2 min, baseline fluorescence was recorded. Each test substance was applied for 2 min, followed by washout with KRH prior to stimulation with the next test substance. Up to 20 individual cells per field were selected for recording and were excited alternately at wavelengths of 380 nm or 340 nm (slit width 15 nm). Fluorescence emission at 510 nm was collected at 5 sec intervals by a low light CCD camera (Hamamatsu Photonics, Hamamatsu City, Japan), and digitized images for the two excitation wavelengths were analyzed using Videoprobe software (ETM Systems, Irvine, Calif.) to determine the 340 nm/380 nm fluorescence ratio for individual cells during each time interval. The 340 nm/380 nm fluorescence ratio is proportional to the concentration of intracellular calcium.

[2] = tested on: rat pituitary cells; assay: Pituitary cell desensitization - growth hormone release assay; type: cell-based
Method: The experiment was designed so that cultures were exposed to a growth hormone secretagogue for 60 min, then growth hormone release was measured during a subsequent 15 min exposure to the same or different growth hormone secretagogue.
Anterior pituitary glands from male Wistar rats (150-175 g, Charles River, Laboratories, Wilmington, Mass.) were collected in Hank's Balanced Salt Solution (#14170, Life Technologies, Gaithersburg, Md.). Glands were minced with a scalpel, then incubated with bacterial protease (Type IX, EC3.4.24.4, #P-6141, Sigma Chemicals, Milwaukee, Wis.) at 10 U/ml to release individual cells. Cells were pelleted by centrifugation at 200×g for 15 min, then suspended in culture medium and plated at a density of 6.0-6.5×10^4 cells per 0.5 ml per well in 48-well tissue culture plates (#3848, Costar Corporation, Cambridge, Mass.). Culture medium consisted of D-MEM (Dulbecco's Modified Eagle Medium) with high glucose and sodium bicarbonate (#11965) supplemented with 10% heat-inactivated horse serum (#26050, Life Technologies, Gaithersburg, Md.), 2.5% fetal bovine serum (#16140, Life Technologies, Gaithersburg, Md.), 0.1 mM MEM non-essential amino acids (#11140, Life Technologies, Gaithersburg, Md.), 100 U/ml nystatin (#15340, Life Technologies, Gaithersburg, Md.) and 50 ug/ml gentamicin sulfate (#15750, Life Technologies, Gaithersburg, Md.). Cultures were maintained for 3-4 days in a humidified, 5% CO2/95% air incubator at 37° C. prior to performing assays for growth hormone release.
For growth hormone release assays, cultures were pre-equilibrated at 37° C. in pre-warmed release medium for 1 h in the presence of a growth hormone secretagogue or excipient (Pretreatment). Release medium consisted of Phenol Red-free D-MEM without bicarbonate (#23800, Life Technologies, Gaithersburg, Md.) supplemented with 25 mM N-[2-hydroxyethyl]piperazine-N′-[2-ethanesulfonic acid] (HEPES), 4.5 g/L glucose, 0.11 g/L sodium pyruvate, 0.584 g/L […] and 0.5% bovine serum albumin (#A-7888, Sigma Chemicals, Milwaukee, Wis.), adjusted to pH 7.4. After pretreatment, the medium was removed and replaced with fresh pre-warmed release medium containing a growth hormone secretagogue or excipient at 0.5 ml/well for 15 min (Treatment). Medium from the Treatment was collected, centrifuged to remove any cells, then assayed for growth hormone content by a conventional double-antibody radioimmunoassay using monkey anti-growth hormone antisera (NIDDK anti-rGH-S-5) and reference rat growth hormone standard (NIDDK-rGH-RP) from Dr. A. F. Parlow, Harbor-UCLA Medical Center, Torrance, Calif. Immune complexes were precipitated using goat anti-monkey immunoglobulin G (#55418, Cappel, Durham, N.C.).
Growth hormone secretagogue solutions were prepared at 1000 times the desired concentration and diluted into pre-warmed release medium immediately before use. Peptides such as His-D-Trp-Ala-Trp-Ala-Trp-D-Phe-Lys-NH2 (GHRP-6, #8061, Peninsula Laboratories, Belmont, Calif.) and rat growth hormone releasing factor (GHRH, #8068, Peninsula Laboratories, Belmont, Calif.) were dissolved at 100 μM in 4 mM acetic acid, 10% ethanol, 0.1% bovine serum albumin; other growth hormone secretagogues were dissolved at 5 mM in dimethyl sulfoxide.

Q: For `[Cl-].[K+]` [KCl, reference compound], which “response of the same (refractory) cells” value ([1]; after re-exposure to Compound A) is on record?
A: The value was “remained responsive”.

Q: For “GHRH: rat growth hormone releasing factor (GHRH, #8068, Peninsula Laboratories) (HADAIFTSSYRRILGQLYARKLLHEIMNRQQGERNQEQRSRFN; Somatoliberin; UniProt P09916 31-73, looked up) [reference compound]”, which GH release ([2]; pretreatment 100 nM GHRH 60 min, treatment none) is on record?
A: The GH release was 12.67 ± 3.31 ng/mL/15 min.

Q: Which GH release ([2]; pretreatment 100 nM GHRP-6 60 min, treatment 100 nM GHRP-6 15 min) does the source give for “H[dW]AWAW[dF]K-NH2 [GHRP-6, reference compound]” here?
A: Its GH release is 7.83 ± 0.98 ng/mL/15 min.

Q: And the GH release ([2]; pretreatment 100 nM GHRP-6 60 min, treatment none)?
A: Its GH release is 9.06 ± 1.87 ng/mL/15 min.

Q: And the GH release ([2]; pretreatment none, treatment 100 nM GHRP-6 15 min, mean ± SD, n = 4)?
A: The GH release was 31.01 ± 8.46 ng/mL/15 min.

Q: What about the “cellular responses (intracellular calcium) on repeated exposure” value ([1]; successive 2 min exposures with washout) of the same molecule?
A: The value was “homologous desensitization”.
